The values that follow come from patent publication US20150065440A1 (Progen Pharmaceuticals Limited, priority 2007, published 2015).

The test system of one experiment is RSV. Kind of experiment: Viral plaque number-reduction assay, RSV. The settings on record: human respiratory syncytial virus, read-out: RSV IC50. In short, it runs like this:
(§1)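 200 PFU virus premixed 10 min with compound (100 μg/mL screen) and kept throughout infection. HSV plaques in GMK AH1 cells, RSV (strain A-2) in HEp-2 cells. Methylcellulose overlay, 37 °C, crystal violet staining after 2 days (HSV-2) or 3 days (HSV-1); plaque numbers counted.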

The test system of the next experiment is HSV-2. Nature of the experiment: Viral plaque number-reduction assay, HSV-2. The settings on record: Human alphaherpesvirus 2, read-out: HSV-2 IC50. In short, it runs like this: as §1
The subject of experiment [1] is pooled normal human plasma. Kind of experiment: Anticoagulant activity, APTT. The settings on record: 0.1 mg/mL in normal pooled human plasma. On the procedure:
APTT measurements were performed on a STAGO STA-Compact Coagulation Analyser using standard protocols according to the manufacturer's instructions. Unfractionated heparin (UFH) was used as a control.

The target in a further experiment is T1, VEGF (Homo sapiens, UniProt P15692).
T1 sequence (P15692 207-395): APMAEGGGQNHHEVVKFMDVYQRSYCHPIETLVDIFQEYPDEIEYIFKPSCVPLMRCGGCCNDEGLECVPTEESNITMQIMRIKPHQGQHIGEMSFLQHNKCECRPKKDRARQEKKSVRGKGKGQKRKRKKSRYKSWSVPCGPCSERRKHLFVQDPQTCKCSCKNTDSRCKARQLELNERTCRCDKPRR
Nature of the experiment: Growth factor binding assay (SPR solution affinity), VEGF. Particulars: HBS-EP buffer, 25° C. In short, it runs like this: (§2)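 Kd measured by SPR solution affinity: fixed growth factor with varying ligand competing for heparin-coated sensorchip, 25 °C. Buffer HBS-EP pH 7.4 (150 mM NaCl) for FGF-1 and VEGF; FGF-2 with 0.3 M NaCl. Duplicate values averaged.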

The test system of experiment [2] is normal pooled human plasma. Kind of experiment: Anticoagulant activity, Heptest. Particulars: 0.1 mg/mL in normal pooled human plasma.
The target in another experiment is FGF-1 (Homo sapiens, UniProt P05230). Nature of the experiment: Growth factor binding assay (SPR solution affinity), FGF-1. Particulars: SPR, HBS-EP buffer, 25° C.; read-out: Kd FGF-1.
Sequence of FGF-1 (P05230 whole entry, species assumed): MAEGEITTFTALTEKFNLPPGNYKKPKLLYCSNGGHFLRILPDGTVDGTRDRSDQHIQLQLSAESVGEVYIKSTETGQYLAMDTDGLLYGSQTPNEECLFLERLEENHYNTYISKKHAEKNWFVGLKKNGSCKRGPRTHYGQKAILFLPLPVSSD
For experiment [3], the target named is T2, recombinant human heparanase (Homo sapiens, UniProt Q9Y251).
T2 sequence (Q9Y251 158-543 limits assumed): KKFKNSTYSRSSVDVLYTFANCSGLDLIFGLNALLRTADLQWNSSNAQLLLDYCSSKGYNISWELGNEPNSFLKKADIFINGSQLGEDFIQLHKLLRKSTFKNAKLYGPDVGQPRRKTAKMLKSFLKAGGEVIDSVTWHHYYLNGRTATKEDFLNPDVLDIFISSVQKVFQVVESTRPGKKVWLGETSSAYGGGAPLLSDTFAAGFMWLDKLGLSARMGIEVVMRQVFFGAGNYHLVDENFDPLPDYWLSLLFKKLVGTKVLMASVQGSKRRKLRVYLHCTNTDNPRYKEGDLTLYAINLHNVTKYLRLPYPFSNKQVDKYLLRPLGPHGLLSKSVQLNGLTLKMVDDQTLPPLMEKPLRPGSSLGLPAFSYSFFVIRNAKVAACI
T2 sequence (Q9Y251 36-109 limits assumed): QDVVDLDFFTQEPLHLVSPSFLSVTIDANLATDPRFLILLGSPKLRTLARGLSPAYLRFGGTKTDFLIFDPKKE
Kind of experiment: Heparanase inhibition assay (fondaparinux cleavage, WST-1). The settings on record: read-out: Ki Heparanase; IC50 converted into Ki; fondaparinux 100 μM, pH 5.0. (Formazan colour is commonly taken as a measure of viable cells.)
Procedure: In the presence of an inhibitor the catalytic activity of heparanase is reduced, and the amount of disaccharide produced and the optical density of the solution are both decreased. The percent inhibition and IC50 of the inhibitor are determined from measurement of the optical density (OD) over a range of inhibitor concentrations.
Assays were carried out in 40 mM sodium acetate buffer, pH 5.0, as follows. […] A blue colour was developed by incubation of the plates at 60° C. for 60 min. […] The IC50 value for each compound was evaluated and converted into a Ki (inhibition constant) using the expression

Another experiment addresses FGF-2 (Homo sapiens, UniProt P09038). Kind of experiment: Growth factor binding assay (SPR solution affinity), FGF-2. The settings on record: SPR, HBS-EP buffer containing 0.3 M NaCl, 25° C.; read-out: Kd FGF-2. The gist of the method: as §2

Sequence of FGF-2 (P09038 143-288, species assumed): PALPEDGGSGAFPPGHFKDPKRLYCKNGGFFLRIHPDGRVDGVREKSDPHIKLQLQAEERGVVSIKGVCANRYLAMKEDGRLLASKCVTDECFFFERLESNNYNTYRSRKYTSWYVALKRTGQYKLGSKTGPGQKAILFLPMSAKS

Consider `CCCCCCCCCCCCCCCCCC(=O)NCCCO[C@@H]1O[C@H](COS(=O)(=O)[O-])[C@@H](O[C@H]2O[C@H](COS(=O)(=O)[O-])[C@@H](O[C@H]3O[C@H](COS(=O)(=O)[O-])[C@@H](O[C@H]4O[C@H](COS(=O)(=O)[O-])[C@@H](OS(=O)(=O)[O-])[C@H](OS(=O)(=O)[O-])[C@H]4OS(=O)(=O)[O-])[C@H](OS(=O)(=O)[O-])[C@H]3OS(=O)(=O)[O-])[C@H](OS(=O)(=O)[O-])[C@H]2OS(=O)(=O)[O-])[C@H](OS(=O)(=O)[O-])[C@H]1OS(=O)(=O)[O-].[Na+].[Na+].[Na+].[Na+].[Na+].[Na+].[Na+].[Na+].[Na+].[Na+].[Na+].[Na+].[Na+]` [Compound 128, 3-Stearamidopropyl 2,3,4,6-tetra-O-sulfo-α-D-glucopyranosyl-(1→4)-2,3,6-tri-O-sulfo-α-D-glucopyranosyl-(1→4)-2,3,6-tri-O-sulfo-α-D-glucopyranosyl-(1→4)-2,3,6-tri-O-sulfo-β-D-glucopyranoside, tridecasodium salt], for which the IC50 (as a rule, the midpoint of a concentration-inhibition curve) worked out at 1.4 µg/mL in the experiment with RSV and 1 µg/mL in the experiment on HSV-2. In experiment [1], this molecule returned an APTT of 65.8 s. Moreover, the figures for the Kd at VEGF, at FGF-1 and on FGF-2 were 14 ± 4 nM, 4.94 ± 0.08 nM and 311 ± 25 nM, respectively. Further, the Heptest in experiment [2] is listed as 32.2 s. In experiment [3], the Ki (as a rule, a dissociation constant, usually derived from enzyme kinetics or from competition with a known ligand) came to 9.1 ± 0.3 nM.
